Measurements: publication PMC8879095, “UHPLC-MS/MS Analysis of Antibiotics Transfer and Concentrations in Porcine Oral Fluid after Intramuscular Application” (Pharmaceuticals, 2022)
Where two headings read alike, the source gives them in different places.

Tests used:
[1] = Antibiotic concentrations in porcine oral fluid after intramuscular application (UHPLC-MS/MS); type: in vivo; details: pigs, i.m.; for concentration in oral fluid at withdrawal period: at the end of the withdrawal period for tissues of each drug (Table 3); for distribution to oral fluid: conclusion in words
Procedure: All animals were born in the sow farm (8000 DanBred sows) located in Northern Poland, after crossing ♀(♂Landrace × ♀Yorskshire) × ♂Duroc. Piglets were weaned after 4 weeks of lactation with an average weight of 6 kg and then moved to the weaner stable (23,000 weaners). After the next 7 weeks, animals were transported to the 9000-places fattening farm with an average body weight of 28 kg, where the trial was performed. All farms in the aforementioned three-phase model used weekly batches and an all-in all-out system. Specialist veterinary and production management care were provided in each location.
For the purpose of the study, 240 immunologically castrated boars were divided into 8 groups, 30 animals in each pen. For the control group, 30 pigs were used in separate pens. Their initial body weight was between 40 and 60 kg. Pigs were housed at 20–25 °C. Fatteners were fed ad libitum with antimicrobial-free water and feed provided by feeders throughout the study. Before the experiment, water and feed were checked for antimicrobials, and no antimicrobial treatments were administered to these pigs before. All animals in one pen were treated due to the same health issue using disposable needles and the same drug and dosage. Pens were separated from each other with concrete walls. The drugs and dosage administered to each experimental group with an indication of withdrawal period for tissues are listed in Table 3. The oral fluid samples were collected using three cotton ropes (70 cm length with 1 cm diameter) in each pen suspended separately for 25 min on the front wall of the pen with bottoms at the pigs’ shoulder height, away from water and feed.
The research material was one pooled sample of oral fluid from 10 pigs, in triplicate, per pen. Ropes were removed immediately after collection. The first oral fluid sample was collected 24 h after the first injection. The collection of each subsequent sample took place at the same time (11:30 A.M.) for 35 consecutive days. Additionally, oral fluid samples were collected from pigs not treated with any antibiotics. Oral fluid from each pen was pooled into one 50-mL Falcon plastic tube and centrifuged at 9447× rcf for 15 min. Centrifuged material was transferred to a 15 mL plastic tube and frozen at −20 °C until analysis.
Before the analysis, the oral fluid samples were centrifuged at 9447× rcf. Next, an aliquot (1 mL) of oral fluid was placed into a 2 mL polypropylene centrifuge tube, and the 30 µL of the internal standard at the concentration of 2 µg/mL was added. For the extraction of analysed antibiotics, 600 µL of 0.5% formic acid was added, vortexed for 30 s and centrifuged for 10 min at 9447× rcf. Then, the supernatant was filtered through a […] PVDF filter into an amber glass vial before chromatographic analysis.
The mass spectrometry detection was operated in the positive ESI mode with multiple reaction monitoring (MRM).

[2] = cited from earlier work
[3] = design: method as in earlier work; details: cited from earlier work
[4] = design: method as in PMID 14651045, PMID 14651045; details: cited from earlier work
[5] = male, (Landrace × Yorkshire) × Duroc crossbred (DanBred sows), pig, intramuscular, oral fluid, time 1 d (24 h after first injection), treatment period, read-out: Avarage Concentrations in oral fluid
[6] = male, (Landrace × Yorkshire) × Duroc crossbred (DanBred sows), pig, intramuscular, oral fluid, treatment period, read-out: Avarage Concentrations in oral fluid
[7] = male, (Landrace × Yorkshire) × Duroc crossbred (DanBred sows), pig, intramuscular, oral fluid, time 4 d, posttreatment, read-out: Avarage Concentrations in oral fluid
[8] = male, (Landrace × Yorkshire) × Duroc crossbred (DanBred sows), pig, intramuscular, oral fluid, posttreatment, read-out: Avarage Concentrations in oral fluid
[9] = oral fluid, time 30 d, posttreatment

concentration at 1 d [1, 5] [ng/mL] | concentration at 2 d [1, 6] [ng/mL] | concentration at 3 d [1, 6] [ng/mL] | concentration at 4 d [1, 7] [ng/mL] | concentration at 5 d [1, 8] [ng/mL] | concentration at 6 d [1, 8] [ng/mL] | concentration at 7 d [1, 8] [ng/mL] | concentration at 8 d [1, 8] [ng/mL] | concentration at 9 d [1, 8] [ng/mL] | concentration at 10 d [1, 8] [ng/mL] | concentration at 11 d [1, 8] [ng/mL] | concentration at 12 d [1, 8] [ng/mL] | concentration at 13 d [1, 8] [ng/mL] | concentration at 14 d [1, 8] [ng/mL] | concentration at 15 d [1, 8] [ng/mL] | concentration at 16 d [1, 8] [ng/mL] | concentration at 17 d [1, 8] [ng/mL] | concentration at 18 d [1, 8] [ng/mL] | concentration at 19 d [1, 8] [ng/mL] | concentration at 20 d [1, 8] [ng/mL] | SMILES | other results
10500 | 2960 ± 446 | 4250 ± 559 | 1550 | 1670 ± 199 | 1790 ± 203 | 1480 ± 186 | 437 ± 101 | 457 ± 96 | 420 ± 83 | 194 ± 55 | 257 ± 76 | 131 ± 41 | 125 ± 33 | 277 ± 61 | 337 ± 69 | 128 ± 28 | 302 ± 51 | 279 ± 44 | 376 ± 52 | CCC[C@@H]1C[C@@H](C(=O)N[C@@H]([C@H]2O[C@H](SC)[C@H](O)[C@@H](O)[C@H]2O)[C@@H](C)O)N(C)C1 [LIN, lincomycin] | concentration at 1 d ([1]; male, (Landrace × Yorkshire) × Duroc crossbred (DanBred sows), pig, intramuscular, oral fluid, first day of medication (abstract), read-out: concentration in oral fluid on the first day of medication): 10500 ng/g; concentration at 21 d [1, 8]: 252 ± 39 ng/mL; concentration at 22 d [1, 8]: 142 ± 24 ng/mL; concentration at 23 d [1, 8]: 298 ± 33 ng/mL; concentration at 24 d [1, 8]: 326 ± 47 ng/mL; concentration at 25 d [1, 8]: 180 ± 44 ng/mL; concentration at 26 d [1, 8]: 160 ± 36 ng/mL; concentration at 27 d [1, 8]: 205 ± 43 ng/mL; concentration at 28 d ([1]; male, (Landrace × Yorkshire) × Duroc crossbred (DanBred sows), pig, intramuscular, oral fluid, time 28 d, posttreatment, read-out: Avarage Concentrations in oral fluid): 103 ± 26 ng/mL; concentration at 29 d ([1]; male, (Landrace × Yorkshire) × Duroc crossbred (DanBred sows), pig, intramuscular, oral fluid, time 29 d, posttreatment, read-out: Avarage Concentrations in oral fluid): 85.6 ± 16 ng/mL; concentration at 30 d ([1]; male, (Landrace × Yorkshire) × Duroc crossbred (DanBred sows), pig, intramuscular, oral fluid, time 30 d, posttreatment, read-out: Avarage Concentrations in oral fluid): 58.1 ng/mL; concentration in oral fluid at withdrawal period ([1]; oral fluid): 437 ng/mL; Avarage Concentrations in oral fluid ([1]; oral fluid, time 1 d (24 h after first injection), treatment period): 10,500 ± 1889 µg/L; Avarage Concentrations in oral fluid ([1]; oral fluid, time 4 d, posttreatment): 1550 ± 211 µg/L; Avarage Concentrations in oral fluid [1, 9]: 58.1 ± 12 µg/L; distribution to oral fluid [1]: high distribution; pKa [2]: about 7.6; apparent volume of distribution [3]: > 1 L/kg
396 ± 68 | 958 ± 166 | 832 ± 142 | 654 ± 111 | 538 ± 96 | 475 ± 89 | 175 ± 54 | 118 ± 41 | 158 ± 62 | 49.3 ± 13 | 54.4 ± 16 | 140 ± 36 | 32.3 ± 11 | 30.6 ± 8.4 | 19.2 ± 5.2 | 52.8 ± 33 | 31.9 ± 10 | 13.9 ± 3.6 | 16.1 ± 4.6 | 25.4 ± 7.7 | CC[C@H]1OC(=O)C[C@@H](O)[C@H](C)[C@@H](O[C@@H]2O[C@H](C)[C@@H](O[C@H]3C[C@@](C)(O)[C@@H](O)[C@H](C)O3)[C@H](N(C)C)[C@H]2O)[C@@H](CC=O)C[C@@H](C)C(=O)/C=C/C(C)=C/[C@@H]1CO[C@@H]1O[C@H](C)[C@@H](O)[C@@H](OC)[C@H]1OC [TYL, tylosin] | concentration at 1 d ([1]; male, (Landrace × Yorkshire) × Duroc crossbred (DanBred sows), pig, intramuscular, 5 mg/kg, oral fluid, time 1 d (24 h after first injection), treatment period, read-out: Avarage Concentrations in oral fluid): 396 ng/mL; concentration at 21 d [1, 8]: 9.2 ± 2.1 ng/mL; concentration at 22 d [1, 8]: 5.5 ± 1.1 ng/mL; concentration at 23 d [1, 8]: 5.4 ± 0.8 ng/mL; concentration at 24 d [1, 8]: 6.6 ± 0.9 ng/mL; concentration at 25 d [1, 8]: 5 ± 1.3 ng/mL; concentration at 26 d [1, 8]: 3 ± 0.5 ng/mL; concentration at 27 d [1, 8]: 6.8 ± 1.7 ng/mL; concentration in oral fluid at withdrawal period ([1]; oral fluid): 6.6 ng/mL; day of peak concentration in oral fluid ([1]; oral fluid, day of drug administration): second day; time for which the analyte was present / quantified in oral fluid ([1]; oral fluid, sampling for 30 days): 27 days; Avarage Concentrations in oral fluid ([1]; oral fluid, time 28 d, posttreatment): <LOQ; Avarage Concentrations in oral fluid ([1]; oral fluid, time 29 d, posttreatment): <LOQ; Avarage Concentrations in oral fluid [1, 9]: <LOQ; distribution to oral fluid [1]: high distribution; pKa [2]: 7.1; binding degree to plasma proteins [4]: < 50%
